Laboratory results taken from patent US8993574B2, “Pyrrole antifungal agents” (F2G Ltd, priority 2008, dated 2015).
In brackets after ≈: the same amount, converted by molar mass.

Columns and labels:
Format in all cases: cell-based
Aspergillus flavus [1] = assay: MIC, YAG medium; settings: 24 h at 35° C, MIC banded into grades; for MIC: Aspergillus flavus, 24 h, read-out: MIC grade, A. flavus
Procedure: (§1) Between 1 and 5 mgs of compound were accurately weighed out into a sterile Eppendorf tube. The compound was dissolved in DMSO to give a solution containing 5 mg/mL. Tubes were stored at −20° C. until required.
(§2) On the day of testing thawed solutions were vortex mixed to ensure homogeneity. 30 μL of solution was removed and added to 570 μL of sterile water in a separate sterile Eppendorf. The thoroughly mixed solution was used to prepare a series of doubling dilutions in water, in a deep well plate. Thirteen replicate plates were prepared using a Minitrak by aspirating 20 μL from each well into eleven clear polystyrene 96 well plates.
(§3) Spores of Aspergillus spp. (Aspergillus fumigatus [two strains], Aspergillus terreus [two strains], Aspergillus niger and Aspergillus flavus) were harvested from cultures grown on Sabarauds agar for 5 days, and resuspended in PBS/Tween 80 to approx 1×10^7 cfu/mL. Each organism suspension was diluted in YAG medium (1% glucose, 1% ammonium chloride and 0.5% yeast extract) to 0.5−2×10^4 cfu/mL. 80 μL of an organism suspension was added to each well of the plate containing drug dilutions.
(§4) This produced MIC plates with a drug range 50-0.05 mg/L and organism inocula of 1−2×10^4 cfu/mL for Aspergillus spp. All plates were incubated for 24 h at 35° C. Growth was assessed by monitoring the optical density at 485 nm for each well. The MIC of a compound is the lowest drug concentration that inhibits growth of an organism by >70% compared with a drug free control. MICs are recorded as mg/L. In cases where the MIC of an organism is […] mg/L the MIC is repeated using a concentration range of 0.5-0.0005 mg/L.
(§5) The following organisms were tested: Aspergillus flavus, Aspergillus fumigatus AF293 and AF210, Aspergillus niger, Aspergillus terreus AT4 and AT49, Candida albicans, Candida glabrata, Candida krusei, Candida parapsilosis and Candida tropicalis.

[2] = system: Aspergillus fumigatus AF293; assay: MIC, YAG medium; settings: 24 h at 35° C, MIC banded into grades; for MIC: Aspergillus fumigatus, read-out: MIC grade, A. fumigatus
Procedure: as §1, §2, §3, §4, §5

Aspergillus terreus AT4 [3] = assay: MIC, YAG medium; settings: 24 h at 35° C, MIC banded into grades; for MIC: Aspergillus terreus, read-out: MIC grade, A. terreus
Procedure: as §1, §2, §3, §4, §5

[4] = system: Aspergillus fumigatus AF210; assay: MIC, YAG medium; settings: 24 h at 35° C, MIC banded into grades; for MIC: Aspergillus fumigatus, read-out: MIC grade, A. fumigatus 210
Procedure: as §1, §2, §3, §4, §5

Aspergillus terreus AT49 [5] = assay: MIC, YAG medium; settings: 24 h at 35° C, MIC banded into grades; for MIC: Aspergillus terreus, read-out: MIC grade, A. terreus 49
Procedure: as §1, §2, §3, §4, §5

Aspergillus niger [6] = assay: MIC, YAG medium; settings: 24 h at 35° C, MIC banded into grades; for MIC: Aspergillus niger, read-out: MIC grade, A. niger
Procedure: as §1, §2, §3, §4, §5

Aspergillus flavus [7] = assay: MIC, RPMI medium; settings: MIC banded into grades; for MIC: Aspergillus flavus, read-out: MIC grade, A. flavus
Procedure: as §1, §2
(§6) Assays were also performed in RPMI medium for both Aspergillus spp. (strains described above) and Candida spp. (Candida albicans, Candida glabrata, Candida krusei, Candida parapsilosis and Candida tropicalis). To perform MIC tests in this medium, dilutions of compounds are prepared in microtitre plates as described above. Fungal strains to be tested are grown and harvested in an identical manner to that described above, and each organism suspension was diluted in RPMI medium, containing 2% glucose and 0.135 M MOPS buffer (pH 7.0) to 0.5-2×10^4 cfu/mL, rather than in YAG medium. 80 μL of an organism suspension was added to each well of the plate containing drug dilutions.
(§7) This produced MIC plates with a drug range 50-0.05 mg/L and organism inocula of 1−2×10^4 cfu/mL. All plates were incubated for 24-48 h at 35° C. Growth was assessed by monitoring the optical density at 485 nm for each well. The MIC of a compound is the lowest drug concentration that inhibits growth of an organism by >80% compared with a drug free control.
as §5

[8] = system: Aspergillus fumigatus AF293; assay: MIC, RPMI medium; settings: for MIC: Aspergillus fumigatus, AF293, MIC banded into grades, read-out: MIC grade, A. fumigatus
Procedure: as §1, §2, §6, §7, §5

Aspergillus terreus AT4 [9] = assay: MIC, RPMI medium; settings: for MIC: Aspergillus terreus, AT4, MIC banded into grades, read-out: MIC grade, A. terreus
Procedure: as §1, §2, §6, §7, §5

[10] = system: Aspergillus fumigatus AF210; assay: MIC, RPMI medium; settings: for MIC: Aspergillus fumigatus, AF210, MIC banded into grades, read-out: MIC grade, A. fumigatus 210
Procedure: as §1, §2, §6, §7, §5

Aspergillus terreus AT49 [11] = assay: MIC, RPMI medium; settings: for MIC: Aspergillus terreus, AT49, MIC banded into grades, read-out: MIC grade, A. terreus 49
Procedure: as §1, §2, §6, §7, §5

Aspergillus niger [12] = assay: MIC, RPMI medium; settings: MIC banded into grades; for MIC: Aspergillus niger, read-out: MIC grade, A. niger
Procedure: as §1, §2, §6, §7, §5

Row | MIC (Aspergillus flavus [1]) [µg/mL] | MIC [2] [µg/mL] | MIC (Aspergillus terreus AT4 [3]) [µg/mL] | MIC [4] [µg/mL] | MIC (Aspergillus terreus AT49 [5]) [µg/mL] | MIC (Aspergillus niger [6]) [µg/mL] | MIC (Aspergillus flavus [7]) [µg/mL] | MIC [8] [µg/mL] | MIC (Aspergillus terreus AT4 [9]) [µg/mL] | MIC [10] [µg/mL] | MIC (Aspergillus terreus AT49 [11]) [µg/mL] | MIC (Aspergillus niger [12]) [µg/mL] | Compound | also measured
1 | < 1 | < 1 | < 1 | < 1 | < 1 | < 1 | 1 to 10 (≈ 1.81 to 18.1 µM) | < 1 | 1 to 10 (≈ 1.81 to 18.1 µM) | 1 to 10 (≈ 1.81 to 18.1 µM) | 1 to 10 (≈ 1.81 to 18.1 µM) | 1 to 10 (≈ 1.81 to 18.1 µM) | CSCn1c(C)cc(-c2ccccc2)c1C(=O)C(=O)Nc1ccc(N2CCN(c3cc(C)cc(C)n3)CC2)cc1 [Example 137, N-{4-[4-(4,6-Dimethyl-pyridin-2-yl)-piperazin-1-yl]-phenyl}-2-(5-methyl-1-methylsulfanylmethyl-3-phenyl-1H-pyrrol-2-yl)-2-oxo-acetamide] | –
2 | > 10 | > 10 | > 10 | > 10 | 1 to 10 (≈ 1.75 to 17.5 µM) | > 10 | > 10 | > 10 | > 10 | > 10 | > 10 | > 10 | COCCn1cc(-c2cccc(Cl)c2)cc1C(=O)C(=O)Nc1ccc(N2CCN(c3cc(C)cc(C)n3)CC2)cc1 [Example 71, 2-[4-(3-Chloro-phenyl)-1-(2-methoxy-ethyl)-1H-pyrrol-2-yl]-N-{4-[4-(4,6-dimethyl-pyridin-2-yl)-piperazin-1-yl]-phenyl}-2-oxo-acetamide] | –
3 | < 1 | < 1 | < 1 | < 1 | < 1 | < 1 | < 1 | < 1 | < 1 | < 1 | < 1 | < 1 | Cc1cc(-c2ccccc2)c(C(=O)C(=O)Nc2ccc(N3CCN(CC(C)C)CC3)cc2F)n1C [Example 105, 2-(1,5-Dimethyl-3-phenyl-1H-pyrrol-2-yl)-N-[2-fluoro-4-(4-isobutyl-piperazin-1-yl)-phenyl]-2-oxo-acetamide] | –
4 | < 1 | < 1 | < 1 | < 1 | < 1 | < 1 | > 10 | < 1 | < 1 | < 1 | < 1 | < 1 | Cc1cc(-c2ccccc2)c(C(=O)C(=O)Nc2ccc(N3CCN(c4ccccn4)CC3)c(F)c2)n1C [Example 116, 2-(1,5-Dimethyl-3-phenyl-1H-pyrrol-2-yl)-N-[3-fluoro-4-(4-pyridin-2-yl-piperazin-1-yl)-phenyl]-2-oxo-acetamide] | –
5 | < 1 | < 1 | < 1 | < 1 | < 1 | < 1 | < 1 | < 1 | < 1 | < 1 | < 1 | < 1 | Cc1cccc(N2CCN(c3ccc(NC(=O)C(=O)c4c(-c5ccccc5)cc(C)n4C)cc3)CC2)n1 [Example 39, 2-(1,5-Dimethyl-3-phenyl-1H-pyrrol-2-yl)-N-{4-[4-(6-methyl-pyridin-2-yl)-piperazin-1-yl]-phenyl}-2-oxo-acetamide] | –
6 | < 1 | 1 to 10 (≈ 2.09 to 20.9 µM) | < 1 | 1 to 10 (≈ 2.09 to 20.9 µM) | < 1 | > 10 | > 10 | > 10 | > 10 | > 10 | > 10 | > 10 | Cc1cc(C)nc(N2CCN(c3ccc(NC(=O)C(=O)c4cccn4-c4ccccc4)cc3)CC2)c1 [Example 2, N-{4-[4-(4,6-Dimethyl-pyridin-2-yl)-piperazin-1-yl]-phenyl}-2-oxo-2-(1-phenyl-1H-pyrrol-2-yl)-acetamide] | –
7 | 1 to 10 (≈ 1.82 to 18.2 µM) | < 1 | < 1 | < 1 | < 1 | 1 to 10 (≈ 1.82 to 18.2 µM) | 1 to 10 (≈ 1.82 to 18.2 µM) | 1 to 10 (≈ 1.82 to 18.2 µM) | < 1 | 1 to 10 (≈ 1.82 to 18.2 µM) | < 1 | 1 to 10 (≈ 1.82 to 18.2 µM) | Cc1cc(C)nc(N2CCN(c3ccc(NC(=O)C(=O)c4c(-c5ccccc5)cc5n4CCN(C)C5)cc3)CC2)c1 [Example 5, N-{4-[4-(4,6-Dimethyl-pyridin-2-yl)-piperazin-1-yl]-phenyl}-2-(2-methyl-7-phenyl-1,2,3,4-tetrahydro-pyrrolo[1,2-a]pyrazin-6-yl)-2-oxo-acetamide] | –
8 | < 1 | < 1 | < 1 | < 1 | < 1 | < 1 | < 1 | < 1 | < 1 | 1 to 10 (≈ 2.48 to 24.8 µM) | < 1 | < 1 | Cc1cc(-c2ccccc2)c(C(=O)C(=O)Nc2ccc(-c3ncco3)c(F)c2)n1C [Example 148, 2-(1,5-Dimethyl-3-phenyl-1H-pyrrol-2-yl)-N-[3-fluoro-4-oxazole-2-yl-phenyl)-2-oxo-acetamide] | –
9 | 1 to 10 (≈ 1.91 to 19.1 µM) | < 1 | 1 to 10 (≈ 1.91 to 19.1 µM) | 1 to 10 (≈ 1.91 to 19.1 µM) | < 1 | > 10 | > 10 | 1 to 10 (≈ 1.91 to 19.1 µM) | 1 to 10 (≈ 1.91 to 19.1 µM) | 1 to 10 (≈ 1.91 to 19.1 µM) | 1 to 10 (≈ 1.91 to 19.1 µM) | > 10 | Cc1cc(C)nc(N2CCN(c3ccc(NC(=O)C(=O)c4c(-c5ccccc5)ccn4CCO)cc3)CC2)c1 [Example 66, N-{4-[4-(4,6-Dimethyl-pyridin-2-yl)-piperazin-1-yl]-phenyl}-2-[1-(2-hydroxy-ethyl)-3-phenyl-1H-pyrrol-2-yl]-2-oxo-acetamide] | –
10 | – | – | – | – | – | – | – | – | – | – | – | – | COC(=O)Cn1cccc1C(=O)C(=O)Nc1ccc(N2CCN(c3cc(C)cc(C)n3)CC2)cc1 [Example 61, (2-{4-[4-(4,6-Dimethyl-pyridin-2-yl)-piperazin-1-yl]-phenylaminooxalyl}-pyrrol-1-yl)-acetic acid methyl ester] | MIC grade, A. flavus (Aspergillus flavus [1]): 1 (a grade of 1 represents an MIC of greater than 10 mg/L); MIC grade, A. fumigatus [2]: 1 (a grade of 1 represents an MIC of greater than 10 mg/L); MIC grade, A. terreus (Aspergillus terreus AT4 [3]): 1 (a grade of 1 represents an MIC of greater than 10 mg/L); MIC grade, A. fumigatus 210 [4]: 2 (A grade of 2 represents an MIC of from 1 to 10 mg/L); MIC grade, A. terreus 49 (Aspergillus terreus AT49 [5]): 1 (a grade of 1 represents an MIC of greater than 10 mg/L); MIC grade, A. niger (Aspergillus niger [6]): 1 (a grade of 1 represents an MIC of greater than 10 mg/L); MIC grade, A. flavus (Aspergillus flavus [7]): 1 (a grade of 1 represents an MIC of greater than 10 mg/L); MIC grade, A. fumigatus ([8]; MIC banded into grades): 1 (a grade of 1 represents an MIC of greater than 10 mg/L); MIC grade, A. terreus (Aspergillus terreus AT4 [9]; MIC banded into grades): 1 (a grade of 1 represents an MIC of greater than 10 mg/L); MIC grade, A. fumigatus 210 ([10]; MIC banded into grades): 2 (A grade of 2 represents an MIC of from 1 to 10 mg/L); MIC grade, A. terreus 49 (Aspergillus terreus AT49 [11]; MIC banded into grades): 1 (a grade of 1 represents an MIC of greater than 10 mg/L); MIC grade, A. niger (Aspergillus niger [12]): 1 (a grade of 1 represents an MIC of greater than 10 mg/L)
